Data set [1] addresses T1, Urotensin-2 receptor (Homo sapiens, UniProt Q9UKP6).
T1 sequence (Q9UKP6 whole entry): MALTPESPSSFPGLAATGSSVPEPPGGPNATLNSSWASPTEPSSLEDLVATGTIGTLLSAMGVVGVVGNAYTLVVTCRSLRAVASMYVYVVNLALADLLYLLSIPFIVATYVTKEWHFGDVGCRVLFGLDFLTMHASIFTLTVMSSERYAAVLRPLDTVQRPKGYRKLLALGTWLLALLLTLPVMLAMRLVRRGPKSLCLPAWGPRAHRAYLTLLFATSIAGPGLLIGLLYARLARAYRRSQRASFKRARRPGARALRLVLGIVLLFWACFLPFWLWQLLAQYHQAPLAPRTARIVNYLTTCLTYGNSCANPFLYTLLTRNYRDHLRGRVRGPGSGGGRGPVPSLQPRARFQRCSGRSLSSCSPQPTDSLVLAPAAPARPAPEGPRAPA
The data set can be described thus: Agonist activity at human urotensin 2 expressed in CHO cells by FLIPR. The format is functional, cell-based.

The target of data set [2] is T2, Urotensin-2 receptor (Rattus norvegicus, UniProt P49684).
T2 sequence (P49684 whole entry): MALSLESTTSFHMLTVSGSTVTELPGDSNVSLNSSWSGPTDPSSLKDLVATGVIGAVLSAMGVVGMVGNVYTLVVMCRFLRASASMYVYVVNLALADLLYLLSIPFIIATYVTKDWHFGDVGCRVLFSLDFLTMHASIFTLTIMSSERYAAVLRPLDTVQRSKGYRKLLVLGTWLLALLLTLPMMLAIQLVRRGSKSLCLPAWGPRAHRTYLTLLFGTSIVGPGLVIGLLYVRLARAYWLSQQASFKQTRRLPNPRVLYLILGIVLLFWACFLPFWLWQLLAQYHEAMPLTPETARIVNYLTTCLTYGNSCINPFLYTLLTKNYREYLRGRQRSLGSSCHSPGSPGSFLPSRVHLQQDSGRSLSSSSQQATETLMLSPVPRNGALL
The experiment in a line: Displacement of [125I]U2 from rat urotensin 2 receptor expressed in CHO cells. The class given is cell-based.

Data set [3] can be described thus: Oral bioavailability in rat. The format is ADME, organism-based. The conditions noted are these: in vivo.
Data set [4] deals with T3, Urotensin-2 receptor (Rattus norvegicus) (UniProt P49684).
T3 sequence (whole entry): T2 sequence (P49684 whole entry)
The experiment in a line: Antagonist activity at rat urotensin 2 receptor expressed in CHO cells assessed as calcium mobilization at 100 nM by FLIPR. The class given is functional, cell-based.

Data set [5] has as its system Rattus norvegicus. The experiment in a line: Decrease in urotensin-2-induced temperature of ear pinna in rat ear-flush model at 10 ug/ml, iv for 15 mins. The class given is functional, organism-based.
The target of data set [6] is T3, Urotensin-2 receptor (Rattus norvegicus). The experiment in a line: Agonist activity at rat urotensin 2 receptor expressed in CHO cells assessed as calcium mobilization at 500 nM by FLIPR. The format is functional, cell-based.
The target is the same in data set [7]. The experiment in a line: Antagonist activity at rat urotensin 2 receptor expressed in CHO cells assessed as calcium mobilization at 300 nM by FLIPR. The format is functional, cell-based.
For data set [8], the target named is T2, Urotensin-2 receptor. The data set can be described thus: Agonist activity at rat urotensin 2 receptor expressed in CHO cells assessed as calcium mobilization by FLIPR. The class given is functional, cell-based.
Data set [9] has as its target T3, Urotensin-2 receptor (Rattus norvegicus). The experiment in a line: (§1) Agonist activity at rat urotensin 2 receptor expressed in CHO cells assessed as calcium mobilization at 1000 nM by FLIPR. The class given is functional, cell-based.
Data set [10] shares this target. The experiment in a line: Antagonist activity at rat urotensin 2 receptor expressed in CHO cells assessed as calcium mobilization at 10000 nM by FLIPR. The format is functional, cell-based.
Data set [11] deals with T2, Urotensin-2 receptor. The data set can be described thus: Antagonist activity at rat urotensin 2 receptor expressed in CHO cells assessed as calcium mobilization by FLIPR. The class given is functional, cell-based.
The test system of the next data set is Aorta. The data set can be described thus: Vasorelaxation activity against urotensin-2-induced contraction in isolated rat aorta assessed as restoration of renal blood flow at 10 mg/kg/hr, iv. The class given is functional, organism-based.
The target in another data set is T4, Urotensin II receptor (Felis catus, UniProt Q533H1).
T4 sequence (Q533H1 whole entry): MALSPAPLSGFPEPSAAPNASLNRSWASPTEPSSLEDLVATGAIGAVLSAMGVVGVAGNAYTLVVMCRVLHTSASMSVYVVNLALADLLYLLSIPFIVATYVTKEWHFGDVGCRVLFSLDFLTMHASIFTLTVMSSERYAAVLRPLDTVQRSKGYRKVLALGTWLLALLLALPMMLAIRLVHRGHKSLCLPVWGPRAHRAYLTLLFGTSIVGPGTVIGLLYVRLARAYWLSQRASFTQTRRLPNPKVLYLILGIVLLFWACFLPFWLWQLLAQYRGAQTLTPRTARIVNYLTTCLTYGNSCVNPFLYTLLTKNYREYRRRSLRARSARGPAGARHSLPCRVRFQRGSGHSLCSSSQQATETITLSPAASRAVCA
The experiment in a line: Binding affinity to cat urotensin 2 receptor.

In data set [12] the target is T5, Urotensin-2 receptor (Macaca mulatta, UniProt Q8HYC3).
T5 sequence (Q8HYC3 whole entry): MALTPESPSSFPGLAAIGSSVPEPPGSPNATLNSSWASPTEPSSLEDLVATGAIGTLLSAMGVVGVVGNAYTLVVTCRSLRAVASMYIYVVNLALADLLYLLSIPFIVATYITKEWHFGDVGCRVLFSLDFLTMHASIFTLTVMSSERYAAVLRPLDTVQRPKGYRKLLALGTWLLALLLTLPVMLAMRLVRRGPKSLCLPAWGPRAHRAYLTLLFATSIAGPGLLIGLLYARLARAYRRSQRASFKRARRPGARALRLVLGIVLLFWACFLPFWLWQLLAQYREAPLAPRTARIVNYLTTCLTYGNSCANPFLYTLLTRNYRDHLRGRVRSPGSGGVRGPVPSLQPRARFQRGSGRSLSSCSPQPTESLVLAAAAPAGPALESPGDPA
The data set can be described thus: Binding affinity to monkey urotensin 2 receptor.

Data set [13] has as its target T6, Urotensin-2 receptor (Mus musculus, UniProt Q8VIH9).
T6 sequence (Q8VIH9 whole entry): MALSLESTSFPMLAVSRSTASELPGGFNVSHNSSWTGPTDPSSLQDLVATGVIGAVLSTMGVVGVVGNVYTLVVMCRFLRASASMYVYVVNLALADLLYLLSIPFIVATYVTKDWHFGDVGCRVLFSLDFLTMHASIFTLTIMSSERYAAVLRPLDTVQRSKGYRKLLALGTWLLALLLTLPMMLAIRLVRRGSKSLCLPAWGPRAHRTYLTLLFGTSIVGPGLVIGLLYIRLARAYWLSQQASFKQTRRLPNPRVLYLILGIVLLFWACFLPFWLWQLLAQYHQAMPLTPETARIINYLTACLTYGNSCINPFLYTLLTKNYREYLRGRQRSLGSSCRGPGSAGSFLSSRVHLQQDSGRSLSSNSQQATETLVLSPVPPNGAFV
The experiment in a line: Binding affinity to mouse urotensin 2 receptor.

For data set [14], the target named is T1, Urotensin-2 receptor. The data set can be described thus: Binding affinity to human urotensin 2 receptor.
In data set [15] the test system is Rattus norvegicus. The experiment in a line: Plasma concentration in rat at 10 mg/kg, iv. The class given is ADME, organism-based. The arrangement: dose 10 mg/kg, route intravenous. The conditions noted are these: in vivo.
A further data set relates to Mus musculus. The data set can be described thus: Reduction in atherosclerotic lesion size in Apo-E knockout mouse at 30 mg/kg, po qd for 10 weeks. The class given is functional. More on the design: scale not given: the % may be the effect or the level left.
Data set [16] deals with T2, Urotensin-2 receptor. The data set can be described thus: Binding affinity to rat urotensin 2 receptor.
Data set [17] deals with T2, Urotensin-2 receptor. Described as §1. The format is functional, cell-based.

Where a name gives a salt, the structure may show the parent alone. Active and inactive are the calls of the source. The rule behind the calls is not given here. Where a SMILES comes first, the peptide text is derived from it. Bridges are numbered along the chain shown (N, C = ends).

This note sets out measurements from ChEMBL document CHEMBL1165847, “Urotensin-II receptor modulators as potential drugs” (J Med Chem, 2010).

`CN(C)CCCOc1ccc(CN2CC[C@H](NC(=O)c3ccc(Cl)c(Cl)c3)C2)cc1`: the values for the Ki on Urotensin-2 receptor [1] and on Urotensin-2 receptor [2] were 250 nM and 3.2 nM, respectively.

The compound `CCN1CCN(c2cccc3c2CN([C@@H](CCCNS(=O)(=O)c2cccs2)c2ccc(OC)c(OC)c2)C3=O)CC1` had a bioavailability in data set [3] of 10%. Besides, the inhibition in data set [4] came to 74%. The outcome in the data set on Rattus norvegicus [5] was Active.

Consider `CC(=O)N[C@@H](Cc1ccccc1)C(=O)N[C@@H](Cc1c[nH]c2ccccc12)C(=O)N[C@@H](CCCCN)C(=O)N[C@@H](Cc1ccc(O)cc1)C(N)=O` (Ac-FWKY-NH2), for which the Ki at Urotensin-2 receptor [2] (cho) is < 10000 nM. Also, in data set [6], the Activity came to 57%. For the same compound, the result in data set [7] was inactive.

The compound `CCN1CCN(c2cccc3c2[C@H]2CCC[C@H](c4ccc(OC)c(OC)c4)N2C3=O)CC1` yielded a bioavailability in [3] of 35%. Besides, the Ki came out at 6.3 nM on Urotensin-2 receptor [8] and 390 nM at Urotensin-2 receptor [1].

Regarding `CC(C)[C@H](NC(=O)[C@@H]1CSSC[C@H](NC(=O)[C@H](CC(N)=O)NC(=O)[C@H](C)N)C(=O)N[C@@H](Cc2ccccc2)C(=O)N[C@@H](Cc2c[nH]c3ccccc23)C(=O)N[C@@H](CCCCN)C(=O)N[C@@H](C)C(=O)N1)C(=O)O` (H-ANCFWKACV-OH; disulfide 3-8), the Activity in data set [9] was 67%. For the same compound, the result in data set [10] was inactive.

Take `COc1cc(Br)c(S(=O)(=O)Nc2ccc(C(F)(F)F)c(O[C@@H]3CCN(C)C3)c2)cc1OC`: the inhibition in [4] was found to be 97%.

Take `Cc1cc(NC(=O)NCCN2CCC(O)(Cc3ccccc3)CC2)c2ccccc2n1` [PALOSURAN SULFATE]: the Ki was > 1000 nM at Urotensin-2 receptor [11]; > 1000 nM on Urotensin II receptor; 4 nM at Urotensin-2 receptor [12]; > 1000 nM at Urotensin-2 receptor [13]; 5 nM on Urotensin-2 receptor [14]. Also, the result in the data set with Aorta was Active. This compound showed a half-maximal inhibitory concentration (IC50) on Urotensin-2 receptor [14] of 3.6 nM. In addition, the concentration in the data set on Rattus norvegicus [15] turned out to be 5 µM.

`CN(C)CCOc1cc(NS(=O)(=O)c2c(Cl)cc(C(F)(F)F)cc2Cl)ccc1Cl` [SB611812]: the bioavailability in [3] was 100%. For the same compound, the Activity with Mus musculus is reported as 64%. This compound displayed a Ki on Urotensin-2 receptor [16] of 121 nM.

As to `CC(C)[C@H](NC(=O)c1cc2ccccc2s1)C(=O)N[C@H]1CCN(Cc2ccc(OCCCN(C)C)cc2)C1`, the figures for the inhibitory constant (Ki) at Urotensin-2 receptor [17] and on Urotensin-2 receptor [14] were 600 nM and 12 nM, respectively.
